Reference: patent publication US20060058263A1, “Heat pasturized liquids containing glucosamine” (priority 2002, published 2006)

Test: Amount of GLCN present following heating (HPAEC-PAD recovery)
Type: physicochemical
Protocol: To determine the amount of GLCN that remains following exposing GLCN beverages to a high temperature, such as those used in pasteurization, the following methods were used.
A beverage sample as described in the preceding examples containing […] of GLCN was dispersed in 25 g of 1.0 N HCl in a 50-mL polypropylene centrifuge tube and capped tightly. The sample was mixed for 30 seconds using a vortex mixer, then placed in a water bath at 37° C. The sample was removed from the water bath at 15-minute intervals, mixed for 30 seconds on a vortex mixer, then returned to the water bath. This cycle was repeated until the sample had been in the water bath for one hour.
After heating, the sample was mixed for 30 seconds on a vortex mixer, then centrifuged for 10 minutes to separate the liquid and solid phases. Fats, oils or lipids in the sample formed a third layer at the top of the tube. A 1-g aliquot of the aqueous sample portion was diluted 100-fold with deionized water, then transferred to an autosampler vial with filter cap.
The free glucosamine in prepared samples was determined using high performance anion-exchange chromatography with pulsed amperometric detection ([…]). The system included an EG40 eluent generator, GP50 gradient pump, AS40 autosampler, LC25 column oven, and ED40 electrochemical detector, all produced by Dionex Corporation (Sunnyvale, Calif.).
The method was adapted from Dionex Corporation Technical Note 40. A Dionex CarboPac PA-20 column was used in place of the PA-10 described in the Technical Note. The eluent was 8 mM KOH at 0.5 mL/min. The column and detector were maintained at 30° C. The injection volume was 10 μL. The standard was glucosamine hydrochloride at 10.8 mg/L. Fermentation broth samples were diluted five-fold with deionized water, ASTM Type II, and filtered through 0.2 μ vial filters in the autosampler. Multiple standards were analyzed before and after each sample set.

% GlcNHCl Recovered (Grape juice, boil, 5 min): 102% | % GlcNHCl Recovered (Lemonade, 71 ° C., 20 min): 101% | % GlcNHCl Recovered (Lemonade, 90 ° C., 20 sec): 101% | % GlcNHCl Recovered (Lemonade, boil, 5 min): 100% | % GlcNHCl Recovered (Lemonade, room temperature): 102%
SMILES: N[C@H]1C(O)O[C@H](CO)[C@@H](O)[C@@H]1O (some centres unmarked) [GLCN, glucosamine]
